{"source": "patent US4650907A", "about": "“Nonaromatic fluoroallylamine MAO inhibitors” (Merrell Dow Pharmaceuticals Inc., priority 1985, dated 1987)", "key": {"MAO": {"test_system": "MAO", "conditions": "selective at lower dosages, less selective at higher dosages; cited from earlier work"}, "MAO-B [1]": {"biological_target": "T1, MAO-B (Rattus norvegicus, UniProt P19643)", "T1 construct": "preparing mitochondria from rat brain by homogenation in phosphate buffer; from tissue; host or cells: rat brain mitochondria", "T1 sequence (P19643 1-520)": "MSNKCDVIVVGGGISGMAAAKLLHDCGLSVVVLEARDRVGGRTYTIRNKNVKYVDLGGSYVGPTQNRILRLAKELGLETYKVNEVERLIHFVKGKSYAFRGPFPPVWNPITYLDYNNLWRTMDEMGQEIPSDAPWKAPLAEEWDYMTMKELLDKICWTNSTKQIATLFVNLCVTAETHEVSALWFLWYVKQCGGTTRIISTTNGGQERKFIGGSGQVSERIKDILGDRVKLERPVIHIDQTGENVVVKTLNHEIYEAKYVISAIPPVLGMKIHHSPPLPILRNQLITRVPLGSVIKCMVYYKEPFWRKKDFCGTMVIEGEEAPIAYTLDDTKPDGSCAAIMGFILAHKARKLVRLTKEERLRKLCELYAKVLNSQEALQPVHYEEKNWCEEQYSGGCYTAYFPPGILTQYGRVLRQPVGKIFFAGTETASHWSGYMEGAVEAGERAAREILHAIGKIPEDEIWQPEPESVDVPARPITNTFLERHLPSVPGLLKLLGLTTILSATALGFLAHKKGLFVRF", "assay": "Inhibition of MAO - in vitro, partially purified mitochondria from rat brain, 14C-phenethylamine (PEA) substrate (MAO-B)", "format": "biochemical", "conditions": "substrate 14C-phenethylamine (PEA), preferred substrate for MAO-B", "excerpt": "(§1) The ability of a compound of structure 1 to inhibit MAO can be determined in vitro by the method of A. Christmas et al., Br. J. Pharmacol. 45, 490 (1972) in partially purified mitochondria from rat brain using ^14 C otyramine or ^14 C phenethylamine and ^14 C 5-HT as the substrate. The MAO inhibitory activity of a compound is expressed as the \"IC50 \" value, which is the molar concentration required to produce 50% inhibition of the enzyme. The IC50 values for certain compounds of structure 1 were determined using the above-described method, and the results are set forth in Table I.\n(§2) The selectivity of a compound of structure 1 with respect to inhibition of MAO-A and MAO-B can be determined by preparing mitochondria from rat brain by homogenation in phosphate buffer (0.1 M, pH 7.2) followed by differential centrifugation. The mitochondria are suspended in the same buffer, the test compound is added at the desired concentration, and the system is incubated. At different time intervals, aliquots are taken and MAO activity is measured using ^14 C 5-hydroxytryptamine (5HT; a preferred substrate for MAO-A) or 14C -phenethylamine (PEA; a preferred substrate for MAO-B) as the substrates. The selectivity is expressed as the ratio of the inhibitory activity against MAO-B versus the inhibitory activity against MAO-A. (Zreika, McDonald, Bey, Palfreyman, J. Neurochem., 448-454 (1984))."}, "MAO-A [2]": {"biological_target": "T2, MAO-A (Rattus norvegicus, UniProt P21396)", "T2 construct": "preparing mitochondria from rat brain by homogenation in phosphate buffer; from tissue; host or cells: rat brain mitochondria", "T2 sequence (P21396 1-526)": "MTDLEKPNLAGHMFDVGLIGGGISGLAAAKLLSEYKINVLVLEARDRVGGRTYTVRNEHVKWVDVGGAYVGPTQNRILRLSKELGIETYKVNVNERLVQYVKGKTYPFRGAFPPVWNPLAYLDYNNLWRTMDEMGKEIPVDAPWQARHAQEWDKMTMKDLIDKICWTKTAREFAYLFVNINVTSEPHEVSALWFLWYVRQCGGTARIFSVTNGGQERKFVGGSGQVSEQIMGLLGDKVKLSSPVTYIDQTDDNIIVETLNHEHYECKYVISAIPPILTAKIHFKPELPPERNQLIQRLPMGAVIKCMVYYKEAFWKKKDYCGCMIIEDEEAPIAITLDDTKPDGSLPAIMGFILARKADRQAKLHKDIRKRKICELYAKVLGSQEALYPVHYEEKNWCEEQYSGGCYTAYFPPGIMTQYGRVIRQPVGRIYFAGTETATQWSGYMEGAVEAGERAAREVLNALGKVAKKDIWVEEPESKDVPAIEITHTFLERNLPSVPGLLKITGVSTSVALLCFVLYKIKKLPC", "assay": "Inhibition of MAO - in vitro, partially purified mitochondria from rat brain, 14C 5-hydroxytryptamine (5-HT) substrate (MAO-A)", "format": "biochemical", "conditions": "substrate 14C 5-hydroxytryptamine (5HT), preferred substrate for MAO-A", "excerpt": "as §1, §2"}, "MAO-B [3]": {"biological_target": "T1, MAO-B", "assay": "Inhibition of MAO - ex vivo, brain mitochondria of orally dosed rats, 14C phenethylamine substrate (MAO-B)", "format": "in vivo", "conditions": "po, brain mitochondrial fraction", "experimental": "(§3) The test compound is administered orally (po) to rats and the animals are killed at various times after treatment. The brain is removed and a mitochondrial fraction, described in Example 12 is prepared. MAO activity is determined using ^14 C p-tyramine, as the substrate. Selectivity can be determined by repeating the above-described test using either ^14 C 5-hydroxytryptamine (for MAO-A) or ^14 C phenethylamine (for MAO-B) as the substrate for determining the % inhibition."}, "MAO-A [4]": {"biological_target": "T2, MAO-A", "assay": "Inhibition of MAO - ex vivo, brain mitochondria of orally dosed rats, 14C 5-hydroxytryptamine substrate (MAO-A)", "format": "in vivo", "conditions": "po, brain mitochondrial fraction", "experimental": "as §3"}, "[5]": {"conditions": "cited from earlier work; for clinical antidepressant effect: man"}}, "data": [{"smiles": "N[C@@H]1C[C@H]1c1ccccc1", "note": "(relative stereo) [tranylcypromine]", "values": [{"measurement": "preferential inhibition of MAO (in words)", "setting": "MAO", "value": "not preferential in their action upon MAO"}]}, {"smiles": "CCCC/C(=C\\F)CN", "note": "[(E)-2-Butyl-3-fluoroallylamine]", "values": [{"measurement": "IC50", "setting": "MAO-B [1]", "value": 2, "unit": "nM"}, {"measurement": "IC50", "setting": "MAO-A [2]", "value": 110, "unit": "nM"}]}, {"smiles": "CCCCCCC/C(=C\\F)CN", "note": "[(E)-2-Heptyl-3-fluoroallylamine]", "values": [{"measurement": "IC50", "setting": "MAO-B [1]", "value": 4.5, "unit": "nM"}, {"measurement": "IC50", "setting": "MAO-A [2]", "value": 60, "unit": "nM"}]}, {"smiles": "CCCCCC/C(=C\\F)CN", "note": "[(E)-2-Hexyl-3-fluoroallylamine]", "values": [{"measurement": "IC50", "setting": "MAO-B [1]", "value": 7, "unit": "nM"}, {"measurement": "IC50", "setting": "MAO-A [2]", "value": 170, "unit": "nM"}]}, {"smiles": "CC(C)C/C(=C\\F)CN", "note": "[(E)-2-Isobutyl-3-fluoroallylamine]", "values": [{"measurement": "IC50", "setting": "MAO-B [1]", "value": 30, "unit": "nM"}, {"measurement": "IC50", "setting": "MAO-A [2]", "value": 2300, "unit": "nM"}, {"measurement": "ED50", "setting": "MAO-B [3]", "value": 0.05, "unit": "mg/kg"}, {"measurement": "ED50", "setting": "MAO-A [4]", "value": 0.8, "unit": "mg/kg"}]}, {"smiles": "CC(C)/C(=C\\F)CN", "note": "[(E)-2-Isopropyl-3-fluoroallylamine]", "values": [{"measurement": "IC50", "setting": "MAO-B [1]", "value": 2500, "unit": "nM"}, {"measurement": "IC50", "setting": "MAO-A [2]", "value": 170000, "unit": "nM"}]}, {"smiles": "CCCCCCCCCCC/C(=C\\F)CN", "note": "[(E)-2-Undecyl-3-fluoroallylamine]", "values": [{"measurement": "IC50", "setting": "MAO-B [1]", "value": 500, "unit": "nM"}, {"measurement": "IC50", "setting": "MAO-A [2]", "value": 750, "unit": "nM"}]}, {"smiles": "CCC(C)/C(=C\\F)CN", "note": "(centres unmarked) [(E)-2-sec-Butyl-3-fluoroallylamine]", "values": [{"measurement": "IC50", "setting": "MAO-B [1]", "value": 7000, "unit": "nM"}, {"measurement": "IC50", "setting": "MAO-A [2]", "value": 170000, "unit": "nM"}]}, {"smiles": "C#CCN(C)[C@H](C)Cc1ccccc1", "note": "[L-deprenyl]", "values": [{"measurement": "preferential inhibition of MAO (in words)", "setting": "MAO", "value": "MAO-B is preferentially inhibited"}, {"measurement": "cheese effect", "setting": "[5]; low dosages where preferential inhibition of MAO-B occurs", "value": "not observed"}, {"measurement": "clinical antidepressant effect", "setting": "[5]", "value": "clinically effective antidepressant agents"}, {"measurement": "potentiation of L-DOPA in Parkinson's disease", "setting": "[5]; treatment of Parkinson's disease", "value": "potentiate L-DOPA for the treatment of Parkinson's disease without producing peripheral side effects"}]}, {"smiles": "C#CCN(C)CCCOc1ccc(Cl)cc1Cl", "note": "[clorgyline]", "values": [{"measurement": "clinical antidepressant effect", "setting": "[5]", "value": "clinically effective antidepressant agents"}]}, {"smiles": "Cc1cc(C(=O)NNCc2ccccc2)no1", "note": "[isocarboxazid]", "values": [{"measurement": "preferential inhibition of MAO (in words)", "setting": "MAO", "value": "not preferential in their action upon MAO"}]}, {"smiles": "C#CCN(C)Cc1ccccc1", "note": "[pargyline]", "values": [{"measurement": "preferential inhibition of MAO (in words)", "setting": "MAO", "value": "MAO-B is preferentially inhibited"}, {"measurement": "clinical antidepressant effect", "setting": "[5]", "value": "clinically effective antidepressant agents"}]}, {"smiles": "NNCCc1ccccc1", "note": "[phenelzine]", "values": [{"measurement": "preferential inhibition of MAO (in words)", "setting": "MAO", "value": "not preferential in their action upon MAO"}]}]}
